Read-outs that look alike come from different tables or passages of the source.
Legend:
ethanol dependent rats = experiment: Voluntary ethanol intake in ethanol dependent (alcohol preferring) rats, free choice between 10% ethanol solution and water; type: in vivo, Long Evans rats
Source text: Ethanol dependent rats were selected as previously described (Boismare F., Daoust M., Moore N., Saligaut C., Chadelaud M., Chrétien P., Durlach J., Lhuintre J. P., A homotaurine derivative reduces the voluntary intake of ethanol by rats: are cerebral GABA receptors involved?, Pharm. Biochem. Behav., 21, 787-789, 1984).
Adult male Long Evans rats weighing 180±20 g at the beginning of the experiment were obtained from “Centre d'élevage Janvier” (France). The rats were housed in individual cages and had free access to food (UAR, France standard diet). They were kept with an ambient temperature of 21° C. and a 12 hr/12 hr light-dark photoperiod. […] Every other day, fluid intakes and body weights were measured, the drinking bottles were refilled and randomly rotated. Food consumption was also measured each week be weighting food pellets. […]
All the drugs were prepared as saline (NaCl 0.9%) solutions and animals were daily i.p. injected with: acamprosate 100 mg/kg, naltrexone 10 mg/kg, acamprosate 100 mg/kg+naltrexone 10 mg/kg or saline 1 ml/200 g body weight. […] Alcohol intakes were expressed as gram of absolute alcohol drunk per kilo of body weight per day (g.kg.d) for alcohol.
FIG. 1 represents means±sem of ethanol intake, expressed as gram of absolute alcohol during each period of pre-treatment, treatment and post-treatment in all groups of rats. […]

[1] = test system: alcohol dependent patients; conditions: used together with supportive therapy; cited from earlier work

| Compound | Ethanol intake (ethanol dependent rats; acamprosate 100 mg/kg daily i.p., 14 days treatment period, p<0.008) | Ethanol intake (ethanol dependent rats) | Rate of relapse to heavy drinking [1] |
| --- | --- | --- | --- |
| CC(=O)NCCCS(=O)(=O)O [acamprosate] | significantly decreased | – | – |
| O=C1CC[C@@]2(O)[C@H]3Cc4ccc(O)c5c4[C@@]2(CCN3CC2CC2)[C@H]1O5 [naltrexone] | – | significantly decreased | reduce the rate of relapse to heavy drinking |

Source: US6512009B1, “Combination for the treatment of alcohol and drug dependence containing an opioid antagonist and a NMDA receptor complex modulator” (Lipha, priority 1998, dated 2003)
